From ChEMBL document CHEMBL1201862, “PubChem BioAssay data set” (2004)
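Growth conditions: 96-well plates. Treatment: test compound, 48 hours, 5 concentrations. Analysis: linear interpolation between bracketing concentrations; unreached endpoints set to highest concentration. Here, GI50 denotes the concentration required for 50% inhibition of growth.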 The source made the active and inactive calls. No stated cut-off is given here; in the data, active = GI50 up to about 1.1 µM and inactive = higher.

Tests used:
Experiment in all cases: NCI anticancer screen, dose series, 48 h
LXFL 529 = tested on: LXFL 529
HOP-18 = tested on: HOP-18
KM-20L2 = tested on: KM-20L2
M19-MEL = tested on: M19-MEL
XF498 = tested on: XF498
SNB-78 = tested on: SNB-78
RXF 631 = tested on: RXF 631
DMS-273 = tested on: DMS-273
DLD-1 = tested on: DLD-1

## NC(=O)c1ncn(C2OC(CO)C(O)C2O)c1O (stereo not drawn)
LXFL 529
  GI50: > 100 µM (inactive)
HOP-18
  GI50: 53.7 µM (inactive)
KM-20L2
  GI50: 34.8 µM (inactive)
M19-MEL
  GI50: > 100 µM (inactive)
XF498
  GI50: > 100 µM (inactive)
SNB-78
  GI50: > 100 µM (inactive)
RXF 631
  GI50: > 100 µM (inactive)

## CCN(CC)C(=S)N/N=C(\C)c1ccccc1O
DMS-273
  GI50: 12.9 µM (inactive)
LXFL 529
  GI50: 13.5 µM (inactive)
HOP-18
  GI50: 26.2 µM (inactive)
KM-20L2
  GI50: 21.4 µM (inactive)
M19-MEL
  GI50: 39.9 µM (inactive)
SNB-78
  GI50: > 100 µM (inactive)
DLD-1
  GI50: 17.8 µM (inactive)
RXF 631
  GI50: 35.2 µM (inactive)

## Cn1cnc2[nH]c(=O)[nH]c(=S)c21
DMS-273
  GI50: > 100 µM (inactive)
LXFL 529
  GI50: > 100 µM (inactive)
HOP-18
  GI50: > 100 µM (inactive)
KM-20L2
  GI50: > 100 µM (inactive)
M19-MEL
  GI50: > 100 µM (inactive)
XF498
  GI50: > 100 µM (inactive)
SNB-78
  GI50: > 100 µM (inactive)
DLD-1
  GI50: > 100 µM (inactive)
RXF 631
  GI50: > 100 µM (inactive)

## Nc1ccc(C(=O)N/C(=C\C=C\c2ccco2)c2nc3c4c(ccc3[nH]2)C(=O)c2ccccc2C4=O)cc1
DMS-273
  GI50: 29.5 µM (inactive)
LXFL 529
  GI50: 49.1 µM (inactive)
HOP-18
  GI50: 11.4 µM (inactive)
KM-20L2
  GI50: 55.6 µM (inactive)
M19-MEL
  GI50: 79.6 µM (inactive)
XF498
  GI50: > 100 µM (inactive)
SNB-78
  GI50: 64.6 µM (inactive)
DLD-1
  GI50: 13.3 µM (inactive)
RXF 631
  GI50: 32.8 µM (inactive)

## O=C1C(c2ccccc2)=C(c2ccccc2)C(c2ccc(Cc3ccc(C4=C(c5ccccc5)C(=O)C(c5ccccc5)=C4c4ccccc4)cc3)cc2)=C1c1ccccc1
DMS-273
  GI50: > 100 µM (inactive)
HOP-18
  GI50: > 100 µM (inactive)
KM-20L2
  GI50: > 100 µM (inactive)
M19-MEL
  GI50: > 100 µM (inactive)
XF498
  GI50: > 100 µM (inactive)
SNB-78
  GI50: > 100 µM (inactive)
DLD-1
  GI50: > 100 µM (inactive)

## COC(=O)C(=O)C(C#N)c1ccc(Cl)c(Cl)c1 (stereo not drawn)
DMS-273
  GI50: > 100 µM (inactive)
LXFL 529
  GI50: > 100 µM (inactive)
KM-20L2
  GI50: > 100 µM (inactive)
M19-MEL
  GI50: > 100 µM (inactive)
XF498
  GI50: > 100 µM (inactive)
SNB-78
  GI50: > 100 µM (inactive)
DLD-1
  GI50: > 100 µM (inactive)
RXF 631
  GI50: > 100 µM (inactive)

## NC(CCCCN/C=C1/N=C(c2ccccc2)OC1=O)C(=O)O (stereo not drawn)
DMS-273
  GI50: > 100 µM (inactive)
LXFL 529
  GI50: > 100 µM (inactive)
KM-20L2
  GI50: > 100 µM (inactive)
M19-MEL
  GI50: > 100 µM (inactive)
XF498
  GI50: > 100 µM (inactive)
SNB-78
  GI50: > 100 µM (inactive)
DLD-1
  GI50: > 100 µM (inactive)

## COC(=O)NC(=O)c1cn(C2OC(CO)C(O)C2O)c(=O)[nH]c1=O (stereo not drawn)
LXFL 529
  GI50: > 100 µM (inactive)
KM-20L2
  GI50: > 100 µM (inactive)
M19-MEL
  GI50: > 100 µM (inactive)
SNB-78
  GI50: > 100 µM (inactive)
DLD-1
  GI50: > 100 µM (inactive)

## CN(C)CCNC(=O)c1c2ccccc2cc2ccccc12
DMS-273
  GI50: 33 µM (inactive)
LXFL 529
  GI50: 26.2 µM (inactive)
HOP-18
  GI50: > 100 µM (inactive)
KM-20L2
  GI50: 37.7 µM (inactive)
M19-MEL
  GI50: 33.2 µM (inactive)
XF498
  GI50: 19.5 µM (inactive)
SNB-78
  GI50: 55.3 µM (inactive)
DLD-1
  GI50: 41.8 µM (inactive)

## NNC(=O)C(=O)N/N=C(\CCC(=O)Nc1ccc(Cl)cc1)Cc1nc2ccccc2s1
DMS-273
  GI50: 15.5 µM (inactive)
LXFL 529
  GI50: 26.4 µM (inactive)
HOP-18
  GI50: 5.33 µM (inactive)
KM-20L2
  GI50: 45.5 µM (inactive)
M19-MEL
  GI50: 17.4 µM (inactive)
SNB-78
  GI50: 70.5 µM (inactive)

## O=C1CCCC2=C(N1)C(=O)C=CC2=O
DMS-273
  GI50: > 100 µM (inactive)
LXFL 529
  GI50: > 58.7 µM (inactive)
HOP-18
  GI50: > 100 µM (inactive)
KM-20L2
  GI50: > 100 µM (inactive)
M19-MEL
  GI50: > 100 µM (inactive)
XF498
  GI50: > 100 µM (inactive)
SNB-78
  GI50: > 100 µM (inactive)
DLD-1
  GI50: > 53.2 µM (inactive)
RXF 631
  GI50: > 100 µM (inactive)

## c1ccc(C2=NN(c3ccccc3)C3(S2)SC(c2ccccc2)(c2ccccc2)c2ccccc23)cc1 (stereo not drawn)
DMS-273
  GI50: > 100 µM (inactive)
LXFL 529
  GI50: > 100 µM (inactive)
KM-20L2
  GI50: > 100 µM (inactive)
M19-MEL
  GI50: > 100 µM (inactive)
XF498
  GI50: > 100 µM (inactive)
SNB-78
  GI50: > 100 µM (inactive)
DLD-1
  GI50: > 100 µM (inactive)

## CC(=O)NNc1nc(C)c(C(=O)/C=C/c2ccccc2Cl)s1
DMS-273
  GI50: > 100 µM (inactive)
HOP-18
  GI50: > 100 µM (inactive)
KM-20L2
  GI50: > 100 µM (inactive)
M19-MEL
  GI50: > 100 µM (inactive)
SNB-78
  GI50: > 100 µM (inactive)
DLD-1
  GI50: > 100 µM (inactive)
RXF 631
  GI50: > 100 µM (inactive)

## OCCN(CCO)c1cccc(N(CCO)CCO)c1
DMS-273
  GI50: > 100 µM (inactive)
LXFL 529
  GI50: > 100 µM (inactive)
KM-20L2
  GI50: 38.5 µM (inactive)
M19-MEL
  GI50: > 100 µM (inactive)
XF498
  GI50: > 100 µM (inactive)
SNB-78
  GI50: > 100 µM (inactive)
DLD-1
  GI50: > 100 µM (inactive)
RXF 631
  GI50: > 100 µM (inactive)

## O=C(CC1C(=O)Nc2ccccc2[S+]1[O-])Nc1ccc(Cl)cc1 (stereo not drawn)
DMS-273
  GI50: > 100 µM (inactive)
LXFL 529
  GI50: 91.8 µM (inactive)
KM-20L2
  GI50: > 100 µM (inactive)
SNB-78
  GI50: 53.7 µM (inactive)
DLD-1
  GI50: > 100 µM (inactive)

## COc1cc(C2c3cc4c(cc3[C@@H](Nc3ccc([N+](=O)[O-])cc3)C3COC(=O)[C@H]23)OCO4)cc(OC)c1O (stereo partly drawn)
DMS-273
  GI50: 0.555 µM (active)
LXFL 529
  GI50: 6.4 µM (inactive)
HOP-18
  GI50: 11.2 µM (inactive)
KM-20L2
  GI50: 2.12 µM (inactive)
M19-MEL
  GI50: 3.06 µM (inactive)
XF498
  GI50: 2.07 µM (inactive)
SNB-78
  GI50: 5.68 µM (inactive)
RXF 631
  GI50: 1.6 µM (inactive)
